Measurements taken from PMC2196011 (The Journal of Experimental Medicine, 2002).

Molecular target: T1, GST-PfNSMase (PfNSM product; plasmodial SM/LCPL-PLC) (Plasmodium falciparum, UniProt Q8WSF5)
T1 sequence (Q8WSF5 1-393): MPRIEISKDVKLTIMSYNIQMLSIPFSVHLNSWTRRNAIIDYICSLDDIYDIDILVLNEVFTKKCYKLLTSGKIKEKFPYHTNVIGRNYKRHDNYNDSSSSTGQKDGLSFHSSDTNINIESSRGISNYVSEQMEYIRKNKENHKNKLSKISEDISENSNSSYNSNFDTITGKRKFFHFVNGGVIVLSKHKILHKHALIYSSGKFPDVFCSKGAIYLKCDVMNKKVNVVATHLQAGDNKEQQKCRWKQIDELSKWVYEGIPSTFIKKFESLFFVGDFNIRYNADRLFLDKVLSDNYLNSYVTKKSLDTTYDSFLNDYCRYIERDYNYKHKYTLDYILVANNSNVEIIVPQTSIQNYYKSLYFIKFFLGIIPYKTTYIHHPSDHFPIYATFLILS
Assay: competition of […]lysoPtdCho hydrolysis, E. coli membrane fraction
Format: biochemical
Conditions: 10 μM [palmitoyl-1-14C]lysoPtdCho; detergent-free; 10 mM MgCl2; pH 7.5; 37°C

Row | Structure (SMILES) | % of control activity
1 | CCCCCCCCCCCCCCCCOC[C@@H](O)COP(=O)([O-])OCC[N+](C)(C)C [lysoPAF] | The activity was moderately competed by PAF and lysoPAF
2 | CCCCCCCCCCCCC/C=C/[C@@H](O)[C@@H](N)COP(=O)([O-])OCC[N+](C)(C)C [sphingosylphosphocholine] | lysoPtdCho was strongly competed by sphingosylphosphocholine
